“And” between values parts separate entries of the source, which are not always exact repeats. Equal values may be shown once. Read-outs that look alike come from different tables or passages of the source.
Columns and labels:
HKx31 (H3N2) = type: in vivo, mice; set-up: key to PMN activity score / Viral titre activity score / BAL IL-6 activity score: 0: inactive; 1: less active than the peptide of SEQ ID NO:38; 2: comparable or more active than the peptide of SEQ ID NO:38; conditions: for IL-6 levels in the BAL fluid / viral titres: 10 mg/kg single dose
Chung model rats = assay: In vivo model of neuropathic pain (II): spinal nerve ligation (Chung) model, paw withdrawal threshold; set-up: species or system rat; conditions: mean ± SEM, n=6
Protocol: The spinal nerve ligation (Chung) model was prepared as described in Example 4, above. Briefly, sixty-four adult male Sprague-Dawley rats, 8-9 weeks old, weighing 250-350 g at the time of surgery, were purchased from Charles River UK Ltd. The animals were housed in groups of 4 in an air-conditioned room on a 12-hour light/dark cycle. Food and water were available ad libitum. Animals were allowed to acclimatise to the environment for experiments for three days by leaving them on a raised metal mesh for at least 40 minutes. The baseline paw withdrawal threshold (PWT) was examined using a series of graduated von Frey hairs for 3 consecutive days before surgery and re-assessed on the 7th day after surgery and on the 12th to 14th day after surgery before drug dosing.
Each rat was anaesthetized with 5% isoflurane mixed with oxygen (2 L per min) followed by an intramuscular (i.m.) injection of ketamine 60 mg/kg plus xylazine 10 mg/kg. The back was shaved and sterilized with povidone-iodine. The animal was placed in a prone position and a para-medial incision was made on the skin covering the L4-6 level. The L5 spinal nerve was carefully isolated and tightly ligated with 6/0 silk suture. The wound was then closed in layers after a complete haemostasis. A single dose of antibiotics (Amoxipen, 15 mg/rat, i.p.) was routinely given for prevention of infection after surgery. The animals were placed in a temperature-controlled recovery chamber until fully awake before being returned to their home cages.
Animals with validated neuropathic pain state were randomly divided into 4 experimental groups: Vehicle (5% DMSO first then in 0.9% saline), 3 mg/kg LAT9997, 3 mg/kg LAT9997×1, and 3 mg/kg LAT1233×1. Each group contained 6 animals.
RSVEGS (SEQ ID NO:9; LAT9997), SVEGS (SEQ NO: 62; LAT9997×1) and ALNSS (SEQ ID NO:63; LAT1233×1) were dissolved in 5% DMSO first then in 0.9% saline, which also served as the vehicle control. All compounds were provided from GenScript for Lateral Pharma. All vehicle/compounds were administrated intravenously at 1 ml/kg body weight.
The animals were placed in individual Perspex boxes on a raised metal mesh for at least 40 min. Starting from the filament of lowest force (1 gram (g)), each vFH filament was applied perpendicularly to the centre of the ventral surface of the paw until it slightly bent for 6 seconds. If the animal withdrew or lifted its paw upon stimulation, a filament with force immediately lower than that tested was used. If no response was observed, a filament with force immediately higher was then tested. The lowest amount of force required to induce reliable responses (positive in 2 out of 3 trials) was recorded as the value of the PWT.
PWT was assessed once daily for three days before surgery (pre D1, Pre D2 and D0) and on day 7 following surgery for monitoring the development of mechanical allodynia.
All drug tests were carried out on the 13th to 17th day after surgery. […]
One-way analysis of variance (ANOVA) (IBM statistics SPSS, Version 27) was used for statistical analysis to compare PWT of different groups at the same time points. When appropriate, Fisher's Least Significant Difference (LSD) post-hoc test was used to compare drug treatment groups to the control groups. A paired Student's t-test (Microsoft Excel 365) was used to compare values of different time points in the same group. To characterise the drug-induced change in PWT relative to vehicle, vehicle values were subtracted from the appropriate drug values. The significance level was set at P<0.05.

[1] = PMN infiltrate in BAL fluid, […], relative to SEQ ID NO:38, 10 mg/kg
[2] = single 10 mg/kg dose, day 3, relative to SEQ ID NO:38
[3] = 1 hour after 3 mg/kg intravenously, listed as LAT1233x1
[4] = 1 hour after 3 mg/kg intravenously, listed as LAT1233×1
[5] = 2 hours after 3 mg/kg intravenously, listed as LAT1233x1
[6] = 2 hours after 3 mg/kg intravenously, listed as LAT1233×1
[7] = 4 hours after 3 mg/kg intravenously, listed as LAT1233x1
[8] = 4 hours after 3 mg/kg intravenously, listed as LAT1233×1
[9] = Pre-dosing, 3 mg/kg group, listed as LAT1233x1, 3 mg/kg
[10] = Pre-dosing, 3 mg/kg group, listed as LAT1233×1, 3 mg/kg
[11] = 1 hour after 3 mg/kg intravenously, listed as LAT9997
[12] = 2 hours after 3 mg/kg intravenously, listed as LAT9997
[13] = 4 hours after 3 mg/kg intravenously, listed as LAT9997
[14] = Pre-dosing, 3 mg/kg group, listed as LAT9997, 3 mg/kg
[15] = 1 hour after 3 mg/kg intravenously
[16] = 2 hours after 3 mg/kg intravenously
[17] = 4 hours after 3 mg/kg intravenously

For 23 (RPVESS) [compound 23], the “IL-6 levels in the BAL fluid” value (HKx31 (H3N2)) was “as effective”, the viral titres (HKx31 (H3N2); day 3) was “effective” and the “BAL IL-6 activity score” value (HKx31 (H3N2); mouse, in vivo, 10 mg/kg) was 1. The PMN activity score (HKx31 (H3N2); mouse, in vivo, 10 mg/kg) was 1, the “Viral titre activity score” value (HKx31 (H3N2); mouse, in vivo, 10 mg/kg) was 2 and the “reducing the PMN infiltrate in BAL fluid, compared with the peptide of SEQ ID NO:38” value (“reducing the PMN infiltrate … of SEQ ID NO:38” for short) (HKx31 (H3N2); single 10 mg/kg dose) was “relatively less effective”.

29 (RIIHNN) [compound 29] was tested, and the “IL-6 levels in the BAL fluid” value (HKx31 (H3N2)) was “as effective”, the viral titres (HKx31 (H3N2); day 3) was “effective” and the “BAL IL-6 activity score” value (HKx31 (H3N2); mouse, in vivo, 10 mg/kg) was 2. The PMN activity score (HKx31 (H3N2); mouse, in vivo, 10 mg/kg) was 2, the “Viral titre activity score” value (HKx31 (H3N2); mouse, in vivo, 10 mg/kg) was 2 and the “reducing the PMN infiltrate … of SEQ ID NO:38” value (HKx31 (H3N2); single 10 mg/kg dose) was “as effective”.

“41 (RALNSS; SITE 1 Arg 1 is bonded to Ser 6; SITE 6 Ser 6 is bonded to Arg 1) [compound 41]” was tested, and the PMN activity score (HKx31 (H3N2); mouse, in vivo, 10 mg/kg) was 1 and the “reducing the PMN infiltrate … of SEQ ID NO:38” value (HKx31 (H3N2); single 10 mg/kg dose) was “relatively less effective”.

For 43 (RALRTK) [compound 43], the “reducing the PMN infiltrate … of SEQ ID NO:38” value (HKx31 (H3N2); single 10 mg/kg dose) was “did not show any changes”.

In the case of 44 (HIVESS) [compound 44], the “IL-6 levels in the BAL fluid” value (HKx31 (H3N2)) was “as effective”, the PMN activity score (HKx31 (H3N2); [1]) was 0 and the “BAL IL-6 activity score” value (HKx31 (H3N2); mouse, in vivo, 10 mg/kg) was 2. The “Viral titre activity score” value (HKx31 (H3N2); mouse, in vivo, 10 mg/kg) was 1 and the “reducing the PMN infiltrate … of SEQ ID NO:38” value (HKx31 (H3N2); single 10 mg/kg dose) was “did not show any changes”.

47 (RAVESS) [compound 47] was tested, and the “IL-6 levels in the BAL fluid” value (HKx31 (H3N2)) was “as effective”, the PMN activity score (HKx31 (H3N2); [1]) was 0 and the “BAL IL-6 activity score” value (HKx31 (H3N2); mouse, in vivo, 10 mg/kg) was 2. The “Viral titre activity score” value (HKx31 (H3N2); mouse, in vivo, 10 mg/kg) was 1.

49 (RALNST) [compound 49] was tested, and the “IL-6 levels in the BAL fluid” value (HKx31 (H3N2)) was “as effective”, the PMN activity score (HKx31 (H3N2); [1]) was 0 and the “BAL IL-6 activity score” value (HKx31 (H3N2); mouse, in vivo, 10 mg/kg) was 2. For the same substance, the “Viral titre activity score” value (HKx31 (H3N2); [2]) was 0.

For 50 (RALQSS) [compound 50], the “IL-6 levels in the BAL fluid” value (HKx31 (H3N2)) was “as effective”, the viral titres (HKx31 (H3N2); day 3) was “effective” and the “BAL IL-6 activity score” value (HKx31 (H3N2); mouse, in vivo, 10 mg/kg) was 2. For the same substance, the PMN activity score (HKx31 (H3N2); mouse, in vivo, 10 mg/kg) was 1, the “Viral titre activity score” value (HKx31 (H3N2); mouse, in vivo, 10 mg/kg) was 2 and the “reducing the PMN infiltrate … of SEQ ID NO:38” value (HKx31 (H3N2); single 10 mg/kg dose) was “relatively less effective”.

For 52 (PALNTS) [compound 52], the “IL-6 levels in the BAL fluid” value (HKx31 (H3N2)) was “as effective”, the viral titres (HKx31 (H3N2); day 3) was “effective” and the PMN activity score (HKx31 (H3N2); [1]) was 0. For the same substance, the “BAL IL-6 activity score” value (HKx31 (H3N2); mouse, in vivo, 10 mg/kg) was 2, the “Viral titre activity score” value (HKx31 (H3N2); mouse, in vivo, 10 mg/kg) was 2 and the “reducing the PMN infiltrate … of SEQ ID NO:38” value (HKx31 (H3N2); single 10 mg/kg dose) was “did not show any changes”.

In the case of 56 (RSVEG) [compound 56], the “IL-6 levels in the BAL fluid” value (HKx31 (H3N2)) was “as effective”, the viral titres (HKx31 (H3N2); day 3) was “effective” and the “BAL IL-6 activity score” value (HKx31 (H3N2); mouse, in vivo, 10 mg/kg) was 2. For the same substance, the PMN activity score (HKx31 (H3N2); mouse, in vivo, 10 mg/kg) was 2, the “Viral titre activity score” value (HKx31 (H3N2); mouse, in vivo, 10 mg/kg) was 2 and the “reducing the PMN infiltrate … of SEQ ID NO:38” value (HKx31 (H3N2); single 10 mg/kg dose) was “as effective”.

With 57 (RSVE) [compound 57] the “BAL IL-6 activity score” value (HKx31 (H3N2); IL-6 in BAL fluid, single 10 mg/kg dose, relative to SEQ ID NO:38) was 0, the PMN activity score (HKx31 (H3N2); mouse, in vivo, 10 mg/kg) was 1 and the “reducing the PMN infiltrate … of SEQ ID NO:38” value (HKx31 (H3N2); single 10 mg/kg dose) was “relatively less effective”. The “Viral titre activity score” value (HKx31 (H3N2); [2]) was 0.

For ALNSS [SEQ ID NO: 63], the “contralateral Paw withdrawal threshold” value (Chung model rats; [3]) was 15.00 ± 0.00 g, the “ipsilateral Paw withdrawal threshold” value (Chung model rats; [3]) was 10.67 ± 1.67 ▴** g and the “contralateral Paw withdrawal threshold” value (Chung model rats; [4]) was 15.00 ± 0.00 g. The “ipsilateral Paw withdrawal threshold” value (Chung model rats; [4]) was 10.67 ± 1.67 g, the “contralateral Paw withdrawal threshold” value (Chung model rats; [5]) was 14.17 ± 0.83 g and the “ipsilateral Paw withdrawal threshold” value (Chung model rats; [5]) was 11.50 ± 1.80 ▴** g. For the same substance, the “contralateral Paw withdrawal threshold” value (Chung model rats; [6]) was 14.17 ± 0.83 g, the “ipsilateral Paw withdrawal threshold” value (Chung model rats; [6]) was 11.50 ± 1.80 g and the “contralateral Paw withdrawal threshold” value (Chung model rats; [7]) was 15.00 ± 0.00 g. The “ipsilateral Paw withdrawal threshold” value (Chung model rats; [7]) was 10.17 ± 1.17 ▴** g, the “contralateral Paw withdrawal threshold” value (Chung model rats; [8]) was 15.00 ± 0.00 g and the “ipsilateral Paw withdrawal threshold” value (Chung model rats; [8]) was 10.17 ± 1.17 g. The “contralateral Paw withdrawal threshold” value (Chung model rats; [9]) was 15.00 ± 0.00 g, the “ipsilateral Paw withdrawal threshold” value (Chung model rats; [9]) was 3.33 ± 0.42 g and the “contralateral Paw withdrawal threshold” value (Chung model rats; [10]) was 15.00 ± 0.00 g. For the same substance, the “ipsilateral Paw withdrawal threshold” value (Chung model rats; [10]) was 3.33 ± 0.42 g.

In the case of RSVEGS [SEQ ID NO: 9], the “contralateral Paw withdrawal threshold” value (Chung model rats; [11]) was 15.00 ± 0.00 g, the “ipsilateral Paw withdrawal threshold” value (Chung model rats; [11]) was 7.83±1.72 g and 7.83 ± 1.72 ^ g and the “contralateral Paw withdrawal threshold” value (Chung model rats; [12]) was 15.00 ± 0.00 g. For the same substance, the “ipsilateral Paw withdrawal threshold” value (Chung model rats; [12]) was 9.67±1.73 g and 9.67 ± 1.73 ▴* g, the “contralateral Paw withdrawal threshold” value (Chung model rats; [13]) was 15.00 ± 0.00 g and the “ipsilateral Paw withdrawal threshold” value (Chung model rats; [13]) was 8.17±1.60 g and 8.17 ± 1.60 ^ g. For the same substance, the “contralateral Paw withdrawal threshold” value (Chung model rats; [14]) was 14.17 ± 0.83 g and the “ipsilateral Paw withdrawal threshold” value (Chung model rats; [14]) was 3.33 ± 0.42 g.

SVEGS [SEQ ID NO: 62] was tested, and the “contralateral Paw withdrawal threshold” value (Chung model rats; [15]) was 15.00 ± 0.00 g, the “ipsilateral Paw withdrawal threshold” value (Chung model rats; [15]) was 11.17 ± 1.74 ▴** g and the “contralateral Paw withdrawal threshold” value (Chung model rats; [16]) was 15.00 ± 0.00 g. The “ipsilateral Paw withdrawal threshold” value (Chung model rats; [16]) was 12.67 ± 1.56 ▴*** g, the “contralateral Paw withdrawal threshold” value (Chung model rats; [17]) was 15.00 ± 0.00 g and the “ipsilateral Paw withdrawal threshold” value (Chung model rats; [17]) was 11.00 ± 1.41 ▴** g. For the same substance, the “contralateral Paw withdrawal threshold” value (Chung model rats; Pre-dosing, 3 mg/kg group) was 15.00 ± 0.00 g and the “ipsilateral Paw withdrawal threshold” value (Chung model rats; Pre-dosing, 3 mg/kg group) was 3.33 ± 0.42 g.

From US12492223B2, “Peptide compositions capable of binding lanthionine synthetase C-like protein (LanCl) and uses thereof” (priority 2021, dated 2025)
